This is an account of results in patent publication US10829427B2, “Naphthoquinones, pro-drugs, and methods of use thereof” (The Board of Regents of the University of Texas System, priority 2015, dated 2020).

One assay relates to Mia PaCa-2 cells. Put plainly: ATP assay (ATP depletion / cell viability) in Mia PaCa-2 cells. Type of assay: cell-based, human. The settings on record: for IC50/IC50 (β-lapachone/Compoud): Relative activity compare with β-lapachone in ATP depletion of Mia PaCa-2 cells. The method, then: (§1) In vitro anti-cancer activity of the compound were performed using ATP Assay Kit (Abcam, ab83355) to initially screen, and further performed using 7-day DNA assay.
(§2) Cell culture: endogenous NQO1 overexpressing human MIA PaCa-2 pancreactic and A549 NSCLC cancer cells were obtained (Bey, et al., 2007; Li, et al., 2011). Cancer cells were grown in DMEM with 5% FBS and Mycoplasma free, and cultured at 37° C. in a 5% CO2 95% air humidified atmosphere.
ATP assay: Cells were seeded into each well of a 96-well plate (15000 cells/well) 18 hours ahead of experiment. After aspiration of the media from each well, 100 μl drug-contained media was added instead, and further incubated for 2 hours. After incubation, 100 μl ATP assay kit mixture was added into every well. Following further shaking for 10 minutes with light proof, the data were collected by reading luminescence integrate 1 second per well.

For another assay, the system named is A549 cells. Put plainly: Cell viability in A549 cells (7-day DNA assay). The settings on record: relative to β-lapachone. The format is cell-based, human. The method, then:
as §1, §2
DNA assay: Cells were seeded into each well of a 48-well plate (10000 cells/well) 24 hours ahead of experiment. After aspiration of the media from each well, 500 μl drug-contained media was added instead, and further incubated for 2 hours. Drugs were then removed, control growth medium was added, and cells were allowed to grow for an additional 7 days. Drugs were added to medium at a 1:1000 dilution immediately before administration to cells. DNA content (a measure of cell growth) was determined by fluoresence of the DNA dye Hoescht 33258 (Sigma), and read in a Cytofluor fluoresence plate reader. Data were expressed as relative growth with 6 repetitions.

For another assay, the system named is MiaPaca 2. Put plainly: Relative survival DNA assay, MiaPaca 2, with or without dicoumarol. The format is cell-based, human. Particulars: for IC50: read-out: Inhibition of cell survival of DNA assay IC50. The method, then: (§3) Cell Lines and Culture. Endogenous NQO1 overexpressing human MiaPaca-2 (pancreatic carcinoma), A549 (None-small cell lung carcinoma), and MCF-7 (breast adenocarcinoma) were obtained (Bey, et al., 2007; Li, et al., 2011). All cell lines were grown in DMEM (Life Technologies) containing 5%-10% FBS (Fisher Scientific) in a 5% CO2 and 95% air incubator at 37° C.
(§4) Relative Survival Assays. Relative survival was assessed by DNA content and colony forming assays as described (Dong, et al., 2010). Briefly, for DNA content, cells were seeded at 1×10^4 per well in 48-well plates and allowed to attach overnight. Cells were then mock treated or treated with various doses of naphthaquinones (for 2 hours) in the presence or absence of dicoumarol as indicated. Drug-free medium was then added and cells were allowed to grow for 5 to 7 days until control cells reached ˜100% confluence. DNA content was then determined by Hoechst 33258 staining and fluorescence detection using a plate reader (Perkin-Elmer).

For the next assay, the system named is A549. Put plainly: Relative survival DNA assay, A549, with or without dicoumarol. Type of assay: cell-based, human. The settings on record: for IC50: read-out: Inhibition of cell survival of DNA assay IC50. The method, then:
as §3, §4

A further assay concerns MCF-7. Put plainly: Relative survival DNA assay, MCF-7, with or without dicoumarol. The format is cell-based, human. Particulars: for IC50: read-out: Inhibition of cell survival of DNA assay IC50. The method, then:
as §3, §4

A further assay relates to H596. Put plainly: Relative survival DNA assay, H596 (low NQO1 expression). Type of assay: cell-based. Particulars: H596 (low NQO1 expression), Vehicle; read-out: Inhibition of cell survival of DNA assay IC50. The method, then:
as §4

The test system of a further assay is orthotopic A549 model. In words: In vivo anti-tumor efficacy, NOD-SCID mice bearing orthotopic A549 model. The settings on record: for Tumor growth via bioluminescence imaging: β-lap-HPβCD 20 mg/kg. The method, then:
Formulation. β-lap-HPβCD formulation was prepared according to our previous report.^14 NQ-059 and HPβCD (1:45, w/w) were dissolved in EtOH, and then concentrated in vacuo to form a thin film or a sponge-like film. PBS was added, and a clear solution was formed with shaking. Immediately filtration through a Ø 0.45 µm filter (Whatman), a stable solution was afforded, whose concentration was quantified by UV-vis at 256 nm.
(§5) Survival and Antitumor Efficacies. 6- to 8-week-old NOD-SCID female mice were tail-vein administrated with luciferase gene-transfected A549 cells (1.0×106), and randomized into groups (n=7-13/group), monitored for tumor formation in the lungs using bioluminescence (BLI) following treatment with vehicle, β-lap-HPβCD, or NQ-059-HPβCD. An average of 1.0×10^7 total photons was used before any therapies were given as described (Huang, et al., 2012). Animals were treated with vehicle, β-lap-HPβCD (20 mg/kg), or NQ-059-HPβCD (15 and 12 mg/kg) via tail vein and repeated five times every 3 days. Tumor-bearing mice were imaged using BLI to estimate relative tumor volumes as described (Ma, et al., 2015) using D-luciferin (Promega, 2.5 mg, subcutaneously injected). Relative tumor volume estimates were derived from BLI images of mice captured using a Xenogen Vivovision IVIS Lumina Imager (60 s exposure time). Animals were monitored daily for survival and morbidity. Mortality was recorded over times as a result of cancer-related deaths or drug-related toxicities (≥20% body weight loss relative to the start of therapy). Athymic Nu/Nu nude female mice (18-20 grams) were commercially obtained (Harlan). Human xenografts were generated by injecting 2×10^6 MiaPaca-2 cells subcutaneously in PBS/Matrigel into 6-week-old mice. Tumors were measured at indicated times with digital calipers (Fisher Scientific), and tumor volumes calculated (length×width^2×0.5). Treatments were initiated when subcutaneous tumors reached an average size of >100 mm (Cao, et al., 2003).

Assay [1] relates to subcutaneous MiaPaca-2 model. Put plainly: In vivo anti-tumor efficacy, nude mice bearing subcutaneous MiaPaca-2 model. Set-up: species or system Athymic Nu/Nu nude female mice. Particulars: subcutaneous MiaPaca-2 tumor model, FIG. 8. The method, then:
as §5, with “Human xenografts were generated by injecting 2×10^6 MiaPaca-2 cells subcutaneously in PBS/Matrigel into 6-week-old mice.” left out, “Treatments were initiated when subcutaneous tumors reached an average size of >100 mm (Cao, et al., 2003).” left out

Where two headings read alike, the source gives them in different places.

Consider `CC(C)OC1=CC(=O)C(=O)c2cc(Cl)ccc21` [Compound 4, 7-chloro-4-isopropoxynaphthalene-1,2-dione], for which the “IC50/IC50 (β-lapachone/Compoud)” value in the assay with Mia PaCa-2 cells and in the assay with A549 cells was 1~2 throughout.

Regarding `CC(C)OC1=CC(=O)C(=O)c2c(NS(C)(=O)=O)cccc21` [Compound 21, N-(5-isopropoxy-7,8-dioxo-7,8-dihydronaphthalen-1-yl)methanesulfonamide], the “IC50/IC50 (β-lapachone/Compoud)” value in the assay on Mia PaCa-2 cells and with A549 cells was more than 3 throughout. The “DNA amount in survival assay relative to β-lapachone” value with MiaPaca 2 (MiaPaca 2, FIGS. 4A-4C) is recorded as “decreased DNA amounts at lower concentrations relative to β-lapachone”; in the assay on A549 (A549, FIGS. 4G-4I) it was “decreased DNA amounts at lower concentrations relative to β-lapachone”; in the assay on MCF-7 (MCF-7, FIGS. 4D-4F), “decreased DNA amounts at lower concentrations relative to β-lapachone”.

Turning to `CCCCCCOC1=CC(=O)C(=O)c2c(NC(C)=O)cccc21` [Compound 28, N-(5-(hexyloxy)-7,8-dioxo-7,8-dihydronaphthalen-1-yl)acetamide], the “IC50/IC50 (β-lapachone/Compoud)” value with Mia PaCa-2 cells and with A549 cells was 1~2 each time.

As to `CC(C)OC1=CC(=O)C(=O)c2ccc(Cl)cc21` [Compound 34, 6-chloro-4-isopropoxynaphthalene-1,2-dione], the “IC50/IC50 (β-lapachone/Compoud)” value in the assay on Mia PaCa-2 cells is 1~2; in the assay with A549 cells, 0.3~1.

Regarding `CC(C)OC1=CC(=O)C(=O)c2cc(Cl)c(Cl)cc21` [Compound 37, 6,7-dichloro-4-isopropoxynaphthalene-1,2-dione], the “IC50/IC50 (β-lapachone/Compoud)” value in the assay with Mia PaCa-2 cells was 1~2; in the assay with A549 cells, 0.3~1.

With `CC(C)OC1=CC(=O)C(=O)c2c(O)cccc21` [Compound 38, 8-hydroxy-4-isopropoxynaphthalene-1,2-dione], the “IC50/IC50 (β-lapachone/Compoud)” value with Mia PaCa-2 cells and in the assay with A549 cells was 1~2 in each case.

For the compound `COCCOCCOCCOCCOC1=CC(=O)C(=O)c2c(NC(C)=O)cccc21` [Compound 48, N-(5-(2,5,8,11-tetraoxatridecan-13-yloxy)-7,8-dioxo-7,8-dihydronaphthalen-1-yl)acetamide], the “IC50/IC50 (β-lapachone/Compoud)” value in the assay on Mia PaCa-2 cells and with A549 cells was more than 3 in each case.

`COCCOCCOC1=CC(=O)C(=O)c2c(NC(C)=O)cccc21` [Compound 49, N-(5-(2-(2-methoxyethoxy)ethoxy)-7,8-dioxo-7,8-dihydronaphthalen-1-yl)acetamide]: the “IC50/IC50 (β-lapachone/Compoud)” value in the assay on Mia PaCa-2 cells and in the assay with A549 cells was 0.3~1 each time.

Take `CC1(C)CCC2=C(O1)c1ccccc1C(=O)C2=O` [β-lapachone, reference compound]: the IC50 in the assay with Mia PaCa-2 cells (MiaPac-2, Vehicle, read-out: Inhibition of cell viability of ATP assay IC50) was 2.79 µM; in the assay with MiaPaca 2 (MiaPaca 2, Dic (dicoumarol, NQO1 inhibitor)) it was more than 10 µM; in the assay on MiaPaca 2 (MiaPaca 2, Vehicle), 4.33 µM; in the assay with A549 (A549, Dic (dicoumarol, NQO1 inhibitor)) it was more than 10 µM; in the assay on A549 (A549, Vehicle), 4.94 µM; in the assay with MCF-7 (MCF-7, Dic (dicoumarol, NQO1 inhibitor)), 9.02 µM. Moreover, the half-inhibitory concentration (IC50) is 2.1 µM in the assay with MCF-7 (MCF-7, Vehicle) and more than 10 µM in the assay on H596. The “Tumor growth via bioluminescence imaging” value in the assay on orthotopic A549 model (after 74 days) is “some tumor growth”; in the assay on orthotopic A549 model (after day 44), “some minor tumor growth”. The “Survival relative to vehicle” value in the assay with orthotopic A549 model (orthotopic A549, FIG. 7C) is recorded as “small improvement over vehicle”. The “Tumor volume relative to the vehicle” value in assay [1] was “did not”.

The term IC50 denotes the concentration that gives 50% inhibition.
